# Measurements reported in patent EP0500835B1, “A NOVEL QUINOLONE CARBOXYLIC ACID DERIVATIVE” (DAEWOONG PHARMACEUTICAL CO., LTD., priority 1990, dated 1992).
# Like-named read-outs stand apart in the source and are kept apart here.
# Experiments:
# Format in all cases: cell-based
# K. oxytoca 1082E = experiment: In vitro antibacterial activity, MIC by agar dilution method; conditions: Klebsiella oxytoca, read-out: In vitro Antibacterial Activity, MIC
# Description: (§1) The typical examples of the present compounds were tested for antimicrobial activity in vitro against twenty strains of Gram-positive and Gram-negative microorganisms.
# (§2) The numerals in the table 1 show minimum inhibitory concentrations(MIC in µg/ml). The minimum inhibitory concentrations were determined according to the agar dilution method recommended by Japan Society of Chemotherapy[Chemotherapy., 29, 76 (1981)].
# P. aeruginosa 1771 = experiment: as above; conditions: Pseudomonas aeruginosa, 1771, read-out: In vitro Antibacterial Activity, MIC
# Description: as §1, §2
# E. coli TEM = experiment: as above; conditions: Escherichia coli, read-out: In vitro Antibacterial Activity, MIC
# Description: as §1, §2
# P. aeruginosa 9027 = experiment: as above
# Description: as §1, §2
# E. coli DC 0 = experiment: as above; conditions: Escherichia coli, DC0, read-out: In vitro Antibacterial Activity, MIC
# Description: as §1, §2
# P. aeruginosa 1771M = experiment: as above; conditions: Pseudomonas aeruginosa, read-out: In vitro Antibacterial Activity, MIC
# Description: as §1, §2
# S. pyogenes A 308 = experiment: as above; conditions: Streptococcus pyogenes
# Description: as §1, §2
# E. coli 1507E = experiment: as above; conditions: Escherichia coli, read-out: In vitro Antibacterial Activity, MIC
# Description: as §1, §2
# P. aeruginosa 1592E = experiment: as above; conditions: Pseudomonas aeruginosa, 1592E, read-out: In vitro Antibacterial Activity, MIC
# Description: as §1, §2
# S. aureus 503 = experiment: as above; conditions: Staphylococcus aureus, 503, read-out: In vitro Antibacterial Activity, MIC
# Description: as §1, §2
# S. aureus 285 = experiment: as above; conditions: Staphylococcus aureus, 285, read-out: In vitro Antibacterial Activity, MIC
# Description: as §1, §2
# S. pyogenes A 77 = experiment: as above; conditions: Streptococcus pyogenes, A77, read-out: In vitro Antibacterial Activity, MIC
# Description: as §1, §2
# S. aureus SG 511 = experiment: as above; conditions: Staphylococcus aureus, SG511, read-out: In vitro Antibacterial Activity, MIC
# Description: as §1, §2
# S. faecium MD 86 = experiment: as above; conditions: Enterococcus faecium
# Description: as §1, §2
# E. coli DC 2 = experiment: as above; conditions: Escherichia coli
# Description: as §1, §2
# [1] = system: Staphylococcus aureus 705E; experiment: Antibacterial activity for MRSA; conditions: Staphylococcus aureus 705E (MRSA)
# Description: (§3) The compound of example 2 was orally administered to determine the LD50 for a group of male mice. […] The antibacterial activity for MRSA(Methicillin Resistant Staphyloccocus Aureus) was tested by the compound of example 2.
# [2] = system: Staphylococcus aureus 694E; experiment: Antibacterial activity for MRSA; conditions: Staphylococcus aureus 694E (MRSA)
# Description: as §3
# [3] = system: Staphylococcus aureus 693E; experiment: Antibacterial activity for MRSA; conditions: Staphylococcus aureus 693E (MRSA)
# Description: as §3
# [4] = system: Staphylococcus aureus 752E; experiment: Antibacterial activity for MRSA; conditions: Staphylococcus aureus 752E (MRSA)
# Description: as §3
# [5] = system: Staphylococcus aureus 121E; experiment: Antibacterial activity for MRSA; conditions: Staphylococcus aureus 121E (MRSA)
# Description: as §3
# [6] = system: Staphylococcus aureus 256E; experiment: Antibacterial activity for MRSA; conditions: Staphylococcus aureus 256E (MRSA)
# Description: as §3
# [7] = system: Staphylococcus aureus 695E; experiment: Antibacterial activity for MRSA; conditions: Staphylococcus aureus 695E (MRSA)
# Description: as §3
# [8] = system: Staphylococcus aureus 708E; experiment: Antibacterial activity for MRSA; conditions: Staphylococcus aureus 708E (MRSA)
# Description: as §3
# [9] = system: Staphylococcus aureus 88 E; experiment: Antibacterial activity for MRSA; conditions: Staphylococcus aureus 88 E (MRSA)
# Description: as §3
# [10] = system: Staphylococcus aureus 714E; experiment: Antibacterial activity for MRSA; conditions: Staphylococcus aureus 714E (MRSA)
# Description: as §3
# [11] = system: Staphylococcus aureus 208E; experiment: Antibacterial activity for MRSA; conditions: Staphylococcus aureus 208E (MRSA)
# Description: as §3
# [12] = system: Saphylococcus aureus 692E; experiment: Antibacterial activity for MRSA; conditions: Saphylococcus aureus 692E (MRSA)
# Description: as §3
# [13] = system: Staphylococcus aureus 707E; experiment: Antibacterial activity for MRSA; conditions: Staphylococcus aureus 707E (MRSA)
# Description: as §3
# [14] = system: Staphylococcus aureus 690E; experiment: Antibacterial activity for MRSA; conditions: Staphylococcus aureus 690E (MRSA)
# Description: as §3
# [15] = system: Staphylococcus aureus 706E; experiment: Antibacterial activity for MRSA; conditions: Staphylococcus aureus 706E (MRSA)
# Description: as §3
# [16] = system: Staphylococcus aureus 697E; experiment: Antibacterial activity for MRSA; conditions: Staphylococcus aureus 697E (MRSA)
# Description: as §3
# [17] = system: Staphylococcus aureus 711E; experiment: Antibacterial activity for MRSA; conditions: Staphylococcus aureus 711E (MRSA)
# Description: as §3
# [18] = system: Staphylococcus aureus 701E; experiment: Antibacterial activity for MRSA; conditions: Staphylococcus aureus 701E (MRSA)
# Description: as §3
# [19] = system: Staphylococcus aureus 703E; experiment: Antibacterial activity for MRSA; conditions: Staphylococcus aureus 703E (MRSA)
# Description: as §3
# E. coli O 55 = experiment: In vitro antibacterial activity, MIC by agar dilution method; conditions: Escherichia coli, O55, read-out: In vitro Antibacterial Activity, MIC
# Description: as §1
# (§4) The minimum inhibitory concentrations were determined according to the agar dilution method recommended by Japan Society of Chemotherapy[Chemotherapy., 29, 76 (1981)].
# E. cloacae 1321E = experiment: as above; conditions: Enterobacter cloacae, 1321E, read-out: In vitro Antibacterial Activity, MIC
# Description: as §1, §4
# K. aerogenes 1522E = experiment: as above; conditions: Klebsiella aerogenes, 1522E, read-out: In vitro Antibacterial Activity, MIC
# Description: as §1, §4
# S. typhimurium = experiment: as above; conditions: Salmonella enterica, TYPHIMURIUM, read-out: In vitro Antibacterial Activity, MIC
# Description: as §1, §4
# E. cloacae P99 = experiment: as above; conditions: Enterobacter cloacae, P99, read-out: In vitro Antibacterial Activity, MIC
# Description: as §1, §4
compound,measurement,setting,value
"O=C(O)c1cn(C2CC2)c2cc(N3CCNCC3)c(F)cc2c1=O [CIP, Ciprofloxacin, reference compound]",MIC,"K. oxytoca 1082E; K. oxytoca 1082E, agar dilution method",0.002 µg/mL
same,MIC,P. aeruginosa 1771,0.195 µg/mL
same,MIC,"E. coli TEM; E. coli TEM, agar dilution method",0.098 µg/mL
same,MIC,"P. aeruginosa 9027; Pseudomonas aeruginosa, P. aeruginosa 9027, agar dilution method, read-out: In vitro Antibacterial Activity, MIC",0.098 µg/mL
same,MIC,E. coli DC 0,0.195 µg/mL
same,MIC,"P. aeruginosa 1771M; P. aeruginosa 1771M, agar dilution method",0.049 µg/mL
same,MIC,"S. pyogenes A 308; A308, S. pyogenes A 308, agar dilution method, read-out: In vitro Antibacterial Activity, MIC",1.56 µg/mL
same,MIC,"E. coli 1507E; E. coli 1507E, agar dilution method",0.049 µg/mL
same,MIC,P. aeruginosa 1592E,0.195 µg/mL
same,MIC,S. aureus 503,0.391 µg/mL
same,MIC,S. aureus 285,0.195 µg/mL
same,MIC,S. pyogenes A 77,0.195 µg/mL
same,MIC,S. aureus SG 511,0.195 µg/mL
same,MIC,"S. faecium MD 86; MD86, S. faecium MD 86, agar dilution method, read-out: In vitro Antibacterial Activity, MIC",0.781 µg/mL
same,MIC,"E. coli DC 2; DC2, E. coli DC 2, agar dilution method, read-out: In vitro Antibacterial Activity, MIC",0.098 µg/mL
same,Antibacterial Activity for MRSA,[1],0.391 µg/mL
same,Antibacterial Activity for MRSA,[2],0.391 µg/mL
same,Antibacterial Activity for MRSA,[3],0.391 µg/mL
same,Antibacterial Activity for MRSA,[4],0.195 µg/mL
same,Antibacterial Activity for MRSA,[5],0.391 µg/mL
same,Antibacterial Activity for MRSA,[6],0.391 µg/mL
same,Antibacterial Activity for MRSA,[7],0.391 µg/mL
same,Antibacterial Activity for MRSA,[8],0.098 µg/mL
same,Antibacterial Activity for MRSA,[9],0.391 µg/mL
same,Antibacterial Activity for MRSA,[10],0.195 µg/mL
same,Antibacterial Activity for MRSA,[11],0.195 µg/mL
same,Antibacterial Activity for MRSA,[12],0.195 µg/mL
same,Antibacterial Activity for MRSA,[13],0.391 µg/mL
same,Antibacterial Activity for MRSA,[14],0.195 µg/mL
same,Antibacterial Activity for MRSA,[15],0.391 µg/mL
same,Antibacterial Activity for MRSA,[16],0.195 µg/mL
same,Antibacterial Activity for MRSA,[17],0.098 µg/mL
same,Antibacterial Activity for MRSA,[18],0.391 µg/mL
same,Antibacterial Activity for MRSA,[19],0.195 µg/mL
"CSCC1CCN(c2cc3c(cc2F)c(=O)c(C(=O)O)cn3C2CC2)C1 (stereo not drawn) [Example 1, 1-cyclopropyl-6-fluoro-7-(3-methylthiomethylpyrrolidinyl)-1,4-dihydro-4-oxo-3-quinolinecarboxylic acid]",MIC,K. oxytoca 1082E; 1082E,0.098 µg/mL
same,MIC,P. aeruginosa 1771,0.781 µg/mL
same,MIC,E. coli TEM,0.391 µg/mL
same,MIC,"P. aeruginosa 9027; Pseudomonas aeruginosa, 9027, read-out: In vitro Antibacterial Activity, MIC",1.56 µg/mL
same,MIC,E. coli DC 0,3.12 µg/mL
same,MIC,P. aeruginosa 1771M; 1771M,0.391 µg/mL
same,MIC,"S. pyogenes A 308; A308, read-out: In vitro Antibacterial Activity, MIC",1.56 µg/mL
same,MIC,E. coli 1507E; 1507E,1.56 µg/mL
same,MIC,P. aeruginosa 1592E,1.56 µg/mL
same,MIC,S. aureus 503,0.025 µg/mL
same,MIC,S. aureus 285,0.025 µg/mL
same,MIC,S. pyogenes A 77,0.781 µg/mL
same,MIC,S. aureus SG 511,0.025 µg/mL
same,MIC,"S. faecium MD 86; MD86, read-out: In vitro Antibacterial Activity, MIC",0.781 µg/mL
same,MIC,"E. coli DC 2; DC2, read-out: In vitro Antibacterial Activity, MIC",0.781 µg/mL
same,MIC,E. coli O 55,0.025 µg/mL
same,MIC,E. cloacae 1321E,0.195 µg/mL
same,MIC,K. aerogenes 1522E,0.391 µg/mL
same,MIC,S. typhimurium,0.195 µg/mL
same,MIC,E. cloacae P99,0.195 µg/mL
